From US20130071521A1, “REBAUDIOSIDE D SWEETENERS AND FOOD PRODUCTS SWEETENED WITH REBAUDIOSIDE D” (PEPSICO, INC., priority 2007, published 2013)

What was measured:
[1] = Kinghorn (2002) page 138, cited from earlier work
[2] = test system: sensory panel of twelve testers; assay: Sensory panel evaluation in water, noncarbonated beverage base and carbonated beverage base (Example 2); assay type: in vivo; design: Sweetness / Bitterness: scale not given here; settings: for interaction between the sweetener and the three beverage bases (initial sweetness attribute plots): water, noncarbonated and carbonated beverage base; for Reb D Compared to Reb A % Ratio, Bitterness / Reb D Compared to Reb A % Ratio, Sweetness: ratio of Reb D to Reb A
Experimental: Potential beverage base effects on the initial sweetness perception of rebaudioside D were investigated by performing tests of three concentrations of rebaudioside D (Reb D) in water, in a noncarbonated beverage base, and in a carbonated beverage base, by a sensory panel of twelve testers. The numerical data generated by the sensory panel testers were then analyzed for their statistical significance.
The water employed for the tests of this Example comprised the characteristics as described in Example 1. The noncarbonated beverage base comprised purified water, and citric acid in an amount sufficient to decrease the pH of the noncarbonated beverage base to 3.1. The carbonated beverage base comprised purified water, carbon dioxide, and citric acid in an amount sufficient to decrease the pH of the noncarbonated beverage base to about 3.1. The initial sweetness characteristics of 606 parts per million (ppm) Reb D in water were compared to the initial sweetness characteristics of 606 ppm Reb D in noncarbonated beverage base and 606 ppm Reb D in carbonated beverage base.
The specific attributes tested by the sensory panel comprised sweetness, thickness, astringency, bitterness, numbing, cooling, licorice, burn/tingle and mouthcoat.

[3] = test system: sensory panel of twelve testers; assay: Sensory panel evaluation of initial sweetness characteristics of sweeteners in water (Example 1); assay type: in vivo; settings: for behavior as compared to sucrose, all concentrations plotted: FIG. 12; for initial sweetness perception: FIG. 2/FIG. 4; for initial bitterness perception: FIG. 3/FIG. 5
Experimental: Sensory evaluations of different sweeteners at various concentrations were performed to provide comparative analysis of organoleptic characteristics of aqueous solutions of rebaudioside D, versus other sweeteners. The rebaudioside D was a stevia extract having a purity of at least 93% by weight rebaudioside D (Reb D). Initial sweetness characteristics of three concentrations of such Reb D in water were determined by a sensory panel of twelve testers. Sensory panels are well known to those of skill in the art, and comprise testers trained to evaluate the organoleptic attributes of comestibles. Typically, sensory panelists have been screened for their taste acuity and extensively trained in the use of standardized vocabulary to describe the appearance, aroma, flavor, mouthfeel and aftertaste of a wide variety of products, as well as scaling techniques to quantify the attributes. The numerical data generated by the sensory panel testers were then analyzed for their statistical significance.
The water employed in the tests of Example 1 comprised purified water as described in detail above, and having a pH of 7.0. The initial sweetness characteristics of 1200 parts per million (ppm) Reb D in water were compared to the initial sweetness characteristics of aqueous solutions of each of 1200 ppm rebaudioside A (Reb A), sucrose, aspartame and sucralose. The rebaudioside A was a stevia extract comprising a purity of 95% by weight rebaudioside A (PureCircle USA Inc., Oak Brook, Ill.). The specific attributes tested by the sensory panel comprised sweetness, thickness, astringency, bitterness, numbing, cooling and licorice.
The initial sweetness characteristics of other concentrations of rebaudioside D in water were also tested and compared to the same concentrations of rebaudioside A in water. […] FIGS. 2 through 5 illustrate the differences in the characteristics of sweetness and bitterness attributes between Reb D and Reb A.

[4] = commonly accepted potency figures; cited from earlier work
[5] = Sweetness intensity and quality of taste of steviol glycosides reported by Kinghorn (2002); settings: from the Kinghorn values
Description: In the book “Stevia, The genus Stevia”, edited by A. Douglas Kinghorn (2002), the structural differences, sweetness intensity and quality of taste between the steviol glycosides is reported on page 138. The relative quality of taste, as compared to stevioside, (i.e., stevioside is rated 0) of rebaudioside D was rated higher (+3) than rebaudioside A was rated (+2). Particular taste attributes that contributed to the quality of taste, however, were not individually rated. The sweetness of rebaudioside A was reported to have a value of 242, whereas the sweetness of rebaudioside D was reported to have a value of 221.

Water solubility = assay type: physicochemical; settings: commercially available Reb D
Description: The water solubility of commercially available Reb D is low, thus, according to certain embodiments of the invention, rebaudioside D is provided as a supersaturated solution of rebaudioside D in the beverage products disclosed herein. As used herein, the term “saturated” refers to the point of maximum concentration at which a solution of a substance (e.g., a rebaudioside D solution) can dissolve no more of that substance. The saturation point of a substance depends on the temperature of the liquid the substance is to be dissolved in, as well as the chemical natures of the liquid and the substance involved (e.g., the water and/or the rebaudioside D). As used herein, the term “supersaturated” refers to a solution that contains more of a dissolved material (e.g., rebaudioside D) than a saturated solution. Supersaturated solutions are typically achieved when one or more conditions of a saturated solution is changed, such as, e.g., temperature, volume (e.g., by evaporation), pressure or the like.

[6] = 360 ppm, averaged across all three beverage bases
[7] = 606 ppm, averaged across all three beverage bases
[8] = 1200 ppm, averaged across all three beverage bases
[9] = CSD (carbonated beverage base), 360 ppm
[10] = CSD (carbonated beverage base), 606 ppm
[11] = High Level, 1200 ppm, averaged across all three beverage bases
[12] = Low-Medium Level, 360 ppm, averaged across all three beverage bases
[13] = Medium Level, 606 ppm, averaged across all three beverage bases
[14] = NCB (noncarbonated beverage base), 360 ppm
[15] = NCB (noncarbonated beverage base), 606 ppm

For C=C1C[C@@]23CC[C@H]4[C@@](C)(CCC[C@@]4(C)C(=O)O[C@@H]4O[C@H](CO)[C@@H](O)[C@H](O)[C@H]4O[C@@H]4O[C@H](CO)[C@@H](O)[C@H](O)[C@H]4O)[C@@H]2CC[C@]1(O[C@@H]1O[C@H](CO)[C@@H](O)[C@H](O[C@@H]2O[C@H](CO)[C@@H](O)[C@H](O)[C@H]2O)[C@H]1O[C@@H]1O[C@H](CO)[C@@H](O)[C@H](O)[C@H]1O)C3 [Reb D, rebaudioside D], the “sweetness (value reported by Kinghorn)” value [1] is listed as 221, the “relative quality of taste, as compared to stevioside” value ([1]; stevioside is rated 0) is listed as “+3” and the “average bitterness in each of the three beverage bases versus Reb A” value ([2]; 360 ppm) is listed as “lower average bitterness”. For the same molecule, the “average sweetness in each of the three beverage bases versus Reb A” value ([2]; 360 ppm) was “greater average sweetness”, the “interaction between the sweetener and the three beverage bases (initial sweetness attribute plots)” value ([2]; 360 ppm (sucrose 5.4 brix), FIGS. 16-18) was “no significant interaction” and the “Reb D Compared to Reb A % Ratio, Bitterness” value [2, 6] was 37%. For the same molecule, the “Reb D Compared to Reb A % Ratio, Sweetness” value [2, 6] was 115%, the “average bitterness in each of the three beverage bases versus Reb A” value ([2]; 606 ppm) was “lower average bitterness” and the “average sweetness in each of the three beverage bases versus Reb A” value ([2]; 606 ppm) was “greater average sweetness”. For the same molecule, the “interaction between the sweetener and the three beverage bases (initial sweetness attribute plots)” value ([2]; 606 ppm (sucrose 8.5 brix), FIGS. 13-15) was “no significant interaction”, the “Reb D Compared to Reb A % Ratio, Bitterness” value [2, 7] was 30% and the “Reb D Compared to Reb A % Ratio, Sweetness” value [2, 7] was 117%. For the same molecule, the “Reb D Compared to Reb A % Ratio, Bitterness” value [2, 8] was 40%, the “Reb D Compared to Reb A % Ratio, Sweetness” value [2, 8] was 150% and the Bitterness [2, 9] was 18.1. For the same molecule, the Sweetness [2, 9] was 63.4, the Bitterness [2, 10] was 14.1 and the Sweetness [2, 10] was 73.9. The Bitterness [2, 11] was 17.4, the Sweetness [2, 11] was 105.5 and the Bitterness [2, 12] was 7.7. For the same molecule, the Sweetness [2, 12] was 60.6, the Bitterness [2, 13] was 9.8 and the Sweetness [2, 13] was 74.3. It also gave a Bitterness [2, 14] of 10.7, a Sweetness [2, 14] of 58.9 and a Bitterness [2, 15] of 7.4. For the same molecule, the Sweetness [2, 15] was 85.1, the Bitterness ([2]; Water, 360 ppm) was 7.7 and the Sweetness ([2]; Water, 360 ppm) was 60.6. For the same molecule, the Bitterness ([2]; Water, 606 ppm) was 9.8, the Sweetness ([2]; Water, 606 ppm) was 74.3 and the “overall attributes versus Reb A” value ([3]; 360, 606 and 1200 ppm in water, FIG. 8) was “less bitterness and astringency”. The “behavior as compared to sucrose, all concentrations plotted” value ([3]; 360 ppm and 606 ppm Reb D in water) was “behaved more like sucrose than did any of the concentrations of Reb A”, the “attributes of lower levels versus the same levels of Reb A” value ([3]; 360 ppm and 606 ppm in water, FIG. 8) was “less bitter, astringent, numbing and licorice” and the “bitterness perception value less than same concentration of Reb A” value ([3]; 360 ppm in water) was “about 30”. For the same molecule, the initial sweetness perception ([3]; 360 ppm in water) was “about 62”, the initial bitterness perception ([3]; 360 ppm in water) was “about 8” and the “initial sweetness attributes versus the same concentration of Reb A” value ([3]; 360 ppm in water, FIG. 7) was “significantly less astringency, bitterness and numbing”. The “relative sweet properties (continuum regular sweet to artificial sweet-like) versus same concentration of Reb A” value (“relative sweet properties” below) ([3]; 360 ppm in water, FIG. 11) was “behaved more like sucrose”, the “bitterness perception value less than same concentration of Reb A” value ([3]; 600 ppm in water) was “about 47” and the “initial sweetness attributes versus the same concentration of Reb A” value ([3]; 606 ppm in water, FIG. 6) was “significantly less astringency, bitterness and numbing”. The “relative sweet properties” value ([3]; 606 ppm in water, FIG. 10) was “behaved more like sucrose”, the “behavior as compared to sucrose, all concentrations plotted” value ([3]; 1200 ppm Reb D in water) was “behaved more like sucrose than did either 606 ppm Reb A or 1200 ppm Reb A” and the “bitterness perception value less than same concentration of Reb A” value ([3]; 1200 ppm in water) was “about 67”. For the same molecule, the “initial sweetness attributes versus the same concentration of Reb A” value ([3]; 1200 ppm in water, FIG. 1) was “significantly less astringency, bitterness and numbing”, the initial sweetness perception ([3]; 1200 ppm in water) was “about 108” and the initial bitterness perception ([3]; 1200 ppm in water) was “about 18”. The “relative sweet properties” value ([3]; 1200 ppm in water, FIG. 9) was “behaved more like sucrose”, the “numerical value of the bitterness perception versus Reb A” value ([3]; all concentrations in water) was “significantly lower” and the “change in sweetness perception with an increase in concentration” value ([3]; in water, 360 to 1200 ppm) was “significant increase in sweetness perception”. The “increase in bitterness perception with an increase in concentration, versus Reb A” value ([3]; in water, 360 to 1200 ppm) was “substantially lower”, the “licorice attribute, 606 ppm Reb D versus 1200 ppm Reb D” value ([3]; in water, FIG. 6) was “lower value” and the “correlation to the sweetness perception attributes of sucrose, versus rebaudioside A” value ([3]; in water, FIG. 8) was “more highly correlated”. The “potency, times as sweet as sugar” value [4] was 150-300 times as sweet as sugar, the “sweetness less than the sweetness of rebaudioside A” value [5] was “approximately 10%” and the water solubility (Water solubility) was “low”.
